According to ChEMBL document CHEMBL1154268, “Bioactive guanidine alkaloids from two Caribbean marine sponges” (J Nat Prod, 2009):

Experiments:
HeLa = assay: Cytotoxicity against human HeLa cells by sulforhodamine B assay; format: functional; settings: read-out: TC50 (the source's name)
Plasmodium falciparum = assay: Antimalarial activity against chloroquine-resistant Plasmodium falciparum FcB1/Columbia infected in human erythrocytes assessed as inhibition of [G-3H]hypoxanthine incorporation after 24 hrs by scintillation counting; format: functional, organism-based
[1] = Selective index, ratio of TC50 for human HeLa cells to IC50 for Plasmodium falciparum FcB1/Columbia; format: functional
MDA-MB-231 = assay: Growth inhibition of human MDA-MB-231 cells by sulforhodamine B assay; format: functional; settings: for CC50: read-out: LC50 (the source's name)
A549 = assay: Growth inhibition of human A549 cells by sulforhodamine B assay; format: functional; settings: for CC50: read-out: LC50 (the source's name)
HT-29 = assay: Growth inhibition of human HT-29 cells by sulforhodamine B assay; format: functional
Vero = assay: Cytotoxicity against african green monkey Vero cells; format: cell-based; settings: chlorocebus sabaeus

SMILES	CC50 (HeLa) [µM]	IC50 (Plasmodium falciparum) [µM]	Selectivity Index [1]	GI50 (MDA-MB-231) [µM]	TGI (MDA-MB-231) [µM]	CC50 (MDA-MB-231) [µM]	GI50 (A549) [µM]	TGI (A549) [µM]	CC50 (A549) [µM]	GI50 (HT-29) [µM]	LC50 (concentration killing 50% of cells) (HT-29) [µM]	TGI (HT-29) [µM]	Activity (Vero)
CCCCCCCCC[C@@H]1C[C@@H]2CC[C@H]3[C@@H](C(=O)OCCCCCCCCC[C@H]4NC(=N)N5CCCC5=C4C(=O)OCCCCNC(=N)N)[C@@H](C)N=C(N1)N23 [BATZELLADINE A]	2.9	0.3	9.7										
CCCCCCCCC[C@@H]1C[C@@H]2CC[C@H]3[C@@H](C(=O)OC(C)CCCCCCC[C@@H]4C[C@@H]5CC[C@@H]6C[C@H](C)NC(=N4)N65)[C@@H](C)N=C(N1)N23 (some centres undefined) [BATZELLADINE L]	< 0.1	0.3	<1										
CCCCCCC[C@@H]1C[C@@H]2CCc3c(C(=O)O)c(C)nc([n+]32)N1 [CLATHRIADIC ACID]		2.3		13.5	> 30	> 30	> 30	> 30	> 30	> 30	> 30	> 30	
CCCCCCCCC[C@@H]1C[C@@H]2CCc3c(C(=O)OCCCCNC(=N)N)c(CCCCC)nc([n+]32)N1 [DIHOMODEHYDROBATZELLADINE C]		4.5		6.1	9.8	15.6	4.7	8.2	13.1	3.1	8.2	5.1	
CCCCCCC[C@@H]1C[C@@H]2CC[C@H]3[C@@H](C(=O)OCCCCCCCCC[C@H]4NC(=N)N5CCCC5=C4C(=O)OCCCCNC(=N)N)[C@@H](C)N=C(N1)N23 [DINORBATZELLADINE A]		0.9		3	3.8	4.6	4.9	5.1	5.4	1.9	7.6	4.2	
CCCCCCC[C@@H]1C[C@@H]2CCc3c(C(=O)OCCCCCCC[C@H]4NC(=N)N5CCCC5=C4C(=O)OCCCCNC(=N)N)c(C)nc([n+]32)N1 [DINORDEHYDROBATZELLADINE B]		0.8					7.9	> 14	> 14	6.2	> 14	> 14	
CCCCCCCC[C@@H]1C[C@@H]2CC[C@H]3[C@@H](C(=O)OCCCCCCCCC[C@H]4NC(=N)N5CCCC5=C4C(=O)OCCCCNC(=N)N)[C@@H](C)N=C(N1)N23 [NORBATZELLADINE A]	4.7	0.2	23.5	3.8	6.4	11.4	2.1	4.6	8.6	1.6	5.7	3.2	
CCCCCCCC[C@@H]1C[C@@H]2CC[C@H]3[C@@H](C(=O)OC(C)CCCCCCC[C@@H]4C[C@@H]5CC[C@@H]6C[C@H](C)NC(=N4)N65)[C@@H](C)N=C(N1)N23 (some centres undefined) [NORBATZELLADINE L]		0.4		0.7	1.9	4.8	1.1	2.1	4.2	1.2	4	2.2	
CC[C@H]1CCCC[C@@]2(C[C@@H]3CC[C@@H]4[C@H](C(=O)OCCCCCCCCCCCCCCCC(=O)N(CCCN)CCCCN)[C@]5(CCC[C@@H](C)O5)NC(=[N+]34)N2)O1.[Cl-] [PTILOMYCALIN A]	0.1	0.1	1.4										Non-toxic
